Laboratory results: publication PMC12679610, “Impact of supersaturation on growth, critical radius, and size in neomycin nanoparticle crystallization using anti-solvent and CTAB” (RSC Advances, 2025)
Read-outs that look alike come from different tables or passages of the source.

Key:
[1] = Solubility of neomycin sulfate in water-acetone in the presence of CTAB; assay type: physicochemical
Protocol: (§1) In this section, the method for the synthesis of neomycin nanoparticles is explained in detail. First, an exact amount of neomycin powder (purity ≥ 95%) was weighed using a digital analytical balance (accuracy: […]) based on the desired equilibrium concentration. The weighed neomycin was then added to 10 g of double-distilled water (25 °C). To ensure complete dissolution, the mixture was homogenized using a magnetic stirrer at controlled speeds of 300, 350, 400, and 450 rpm for 20 minutes. This range of stirring speeds was selected to investigate the effect of shear force on solution homogeneity. After confirming the homogeneity of the neomycin solution, a predetermined amount of CTAB surfactant with a concentration established from prior studies was added to the beaker. To achieve optimal mixing, the stirring system was activated at a constant speed between 300 and 450 rpm, and the mixing process continued until equilibrium was reached. The solution temperature was continuously monitored using a calibrated digital thermometer (±0.1 °C). A turbidity sensor was installed 2 cm from the crystallizer wall to measure changes in turbidity. Pure acetone (HPLC grade) was added dropwise (0.02 mL per drop) at 5-minute intervals. The first signs of physical change (e.g., localized cloudiness) were recorded as the initial saturation point. Acetone addition continued until stable turbidity (supersaturation) was achieved under isothermal conditions (25 °C). The induction time (the interval between initial saturation and supersaturation), as clearly depicted in Fig. 1, Section C (the induction time segment of steps 1 to 4), was measure using a synchronized turbidimeter and reaction timer data. To ensure reproducibility, the entire process was repeated in four independent trials under controlled conditions (constant temperature, humidity, and lighting).
This study investigated the solubility enhancement of neomycin in the presence of CTAB stabilizer through controlled dynamic shock application. In contrast to the reference study,[29] which utilized PVP at a mixing speed of 300 rpm, the present experimental design involved the addition of 0.3 g neomycin to a 10 g solvent–antisolvent mixture under 350 rpm agitation, incorporating intermittent dynamic shocks consisting of 3-second pulses at 380 rpm. […] This significant improvement stems from synergistic effects between: (1) CTAB's molecular interactions (ionic complexation with neomycin molecules, surface tension reduction, and stable colloidal environment through spherical micelle formation) and (2) dynamic shock-induced phenomena (enhanced antisolvent penetration and uniform stabilizer distribution).[73] […] The findings underscore the critical importance of concurrent optimization of physicochemical parameters in antisolvent crystallization processes for pharmaceutical nanoparticles.[74]
This study comprehensively investigated the influence of CTAB surfactant on neomycin crystallization. […] The supersaturation (S), as the primary driving force, directly affects the induction time, critical radius, growth rate, solubility, nanoparticle size, and nucleation mechanism.[33] CTAB operates through selective adsorption on crystalline surfaces, substantially influencing the nucleation pathway.[75,76] […] Quantitative data for these parameters are presented in Table 2, with the growth rate (intensity %) and nanoparticle size data being experimentally derived from DLS analysis.

[2] = parameters: method as in PMID 40028493; settings: PVP as stabilizer, cited from earlier work
[3] = Induction time measurement by in situ turbidimeter (antisolvent crystallization); assay type: physicochemical; settings: CTAB 0.6 g kg^−1, 25 °C
Protocol: as §1
Induction time represents a key parameter in crystallization processes, being predominantly influenced by three factors of supersaturation, temperature, and agitation rate.[29,32] This parameter characterizes the time interval between the onset of initial physical changes (saturated state) and the complete formation of a turbid phase (supersaturated state) within the system. Investigations indicate that both the optimal agitation speed and the application of dynamic shock have a significant influence on the system's supersaturation level.[29,33,35,36] A sudden increase in agitation rate initially induces localized supersaturation reduction through turbulence generation at the interface between unstable and metastable zones. […] CTAB modulates the process by reducing surface energy and stabilizing subcritical clusters, which shortens the nucleation time and broadened the metastable zone. Agitation dynamics initially cause a temporary decrease in localized supersaturation (dynamic shock), followed by a stabilization phase that enables controlled crystal growth.
Methodologically, induction time was measured using both visual observation and in situ turbidimetry.

In the case of `NC[C@@H]1O[C@H](O[C@H]2[C@@H](O)[C@H](O[C@@H]3[C@@H](O)[C@H](N)C[C@H](N)[C@H]3O[C@H]3O[C@H](CN)[C@@H](O)[C@H](O)[C@H]3N)O[C@@H]2CO)[C@H](N)[C@@H](O)[C@@H]1O.O=S(=O)(O)O` [neomycin sulfate], the Solubility ([1]; 300 rpm, initial neomycin 20 g kg^−1, S 1.18, CTAB 0.6 g kg^−1, 25 °C) is reported as 17 g/kg, the Solubility ([1]; 300 rpm, initial neomycin 20 g kg^−1, S 1.21, CTAB 0.6 g kg^−1, 25 °C) is reported as 16 g/kg and the Solubility ([1]; 300 rpm, initial neomycin 20 g kg^−1, S 1.33, CTAB 0.6 g kg^−1, 25 °C) is reported as 15 g/kg. For the same compound, the Solubility ([1]; 300 rpm, initial neomycin 20 g kg^−1, S 1.45, CTAB 0.6 g kg^−1, 25 °C) was 13.8 g/kg, the Solubility ([1]; 300 rpm, initial neomycin 20 g kg^−1, S 1.66, CTAB 0.6 g kg^−1, 25 °C) was 12 g/kg and the Solubility ([1]; 350 rpm, initial neomycin 30 g kg^−1, S 1.2, CTAB 0.6 g kg^−1, 25 °C) was 25 g/kg. For the same compound, the Solubility ([1]; 350 rpm, initial neomycin 30 g kg^−1, S 1.25, CTAB 0.6 g kg^−1, 25 °C) was 24 g/kg, the Solubility ([1]; 350 rpm, initial neomycin 30 g kg^−1, S 1.28, CTAB 0.6 g kg^−1, 25 °C) was 23.5 g/kg and the Solubility ([1]; 350 rpm, initial neomycin 30 g kg^−1, S 1.43, CTAB 0.6 g kg^−1, 25 °C) was 21.1 g/kg. For the same compound, the Solubility ([1]; 400 rpm, initial neomycin 40 g kg^−1, S 1.29, CTAB 0.6 g kg^−1, 25 °C) was 31 g/kg, the Solubility ([1]; 400 rpm, initial neomycin 40 g kg^−1, S 1.379, CTAB 0.6 g kg^−1, 25 °C) was 29 g/kg and the Solubility ([1]; 400 rpm, initial neomycin 40 g kg^−1, S 1.48, CTAB 0.6 g kg^−1, 25 °C) was 27 g/kg. The Solubility ([1]; 400 rpm, initial neomycin 40 g kg^−1, S 1.66, CTAB 0.6 g kg^−1, 25 °C) was 24 g/kg, the Solubility ([1]; 400 rpm, initial neomycin 40 g kg^−1, S 1.9, CTAB 0.6 g kg^−1, 25 °C) was 21 g/kg and the Solubility ([1]; 450 rpm, initial neomycin 50 g kg^−1, S 1.351, CTAB 0.6 g kg^−1, 25 °C) was 37 g/kg. For the same compound, the Solubility ([1]; 450 rpm, initial neomycin 50 g kg^−1, S 1.47, CTAB 0.6 g kg^−1, 25 °C) was 34 g/kg, the Solubility ([1]; 450 rpm, initial neomycin 50 g kg^−1, S 1.666, CTAB 0.6 g kg^−1, 25 °C) was 30 g/kg and the Solubility ([1]; 450 rpm, initial neomycin 50 g kg^−1, S 1.785, CTAB 0.6 g kg^−1, 25 °C) was 28 g/kg. For the same compound, the “Interfacial energy, Motahari et al.” value ([2]; initial neomycin 20 g kg solvent^−1) was 7.68 mJ m^−2, the “Interfacial energy, Motahari et al.” value ([2]; initial neomycin 30 g kg solvent^−1) was 8.056 mJ m^−2 and the Induction time ([3]; 300 rpm, initial neomycin 20 g kg^−1, S 1.18) was 112 s. It also gave an Induction time ([3]; 300 rpm, initial neomycin 20 g kg^−1, S 1.33) of 91 s, an Induction time ([3]; 300 rpm, initial neomycin 20 g kg^−1, S 1.45) of 86 s and an Induction time ([3]; 300 rpm, initial neomycin 20 g kg^−1, S 1.66) of 79 s. It also gave an Induction time ([3]; 350 rpm, initial neomycin 30 g kg^−1, S 1.2) of 101 s, an Induction time ([3]; 350 rpm, initial neomycin 30 g kg^−1, S 1.25) of 94 s and an Induction time ([3]; 350 rpm, initial neomycin 30 g kg^−1, S 1.28) of 89 s. It also gave an Induction time ([3]; 350 rpm, initial neomycin 30 g kg^−1, S 1.43) of 81 s, an Induction time ([3]; 350 rpm, initial neomycin 30 g kg^−1, S 1.67) of 74 s and an Induction time ([3]; 400 rpm, initial neomycin 40 g kg^−1, S 1.29) of 99 s. The Induction time ([3]; 400 rpm, initial neomycin 40 g kg^−1, S 1.379) was 96 s, the Induction time ([3]; 400 rpm, initial neomycin 40 g kg^−1, S 1.48) was 83 s and the Induction time ([3]; 400 rpm, initial neomycin 40 g kg^−1, S 1.66) was 76 s. For the same compound, the Induction time ([3]; 400 rpm, initial neomycin 40 g kg^−1, S 1.9) was 72 s, the Induction time ([3]; 450 rpm, initial neomycin 50 g kg^−1, S 1.351) was 90 s and the Induction time ([3]; 450 rpm, initial neomycin 50 g kg^−1, S 1.408) was 84 s. It also gave an Induction time ([3]; 450 rpm, initial neomycin 50 g kg^−1, S 1.47) of 77 s, an Induction time ([3]; 450 rpm, initial neomycin 50 g kg^−1, S 1.666) of 70 s and an Induction time ([3]; 450 rpm, initial neomycin 50 g kg^−1, S 1.785) of 64 s.
